Our source for the IC50 values is US20060252807A1, “Novel ortho-terphenyl inhibitors of p38 kinase and methods of treating inflammatory disorders” (Kalypsys, Inc., priority 2005, published 2006).

The term pIC50 denotes −log10 of the IC50, conventionally taken in molar units. A high value points to a small IC50.

pIC50: −log10 of the molar value.

T1 sequence (Q16539 whole entry): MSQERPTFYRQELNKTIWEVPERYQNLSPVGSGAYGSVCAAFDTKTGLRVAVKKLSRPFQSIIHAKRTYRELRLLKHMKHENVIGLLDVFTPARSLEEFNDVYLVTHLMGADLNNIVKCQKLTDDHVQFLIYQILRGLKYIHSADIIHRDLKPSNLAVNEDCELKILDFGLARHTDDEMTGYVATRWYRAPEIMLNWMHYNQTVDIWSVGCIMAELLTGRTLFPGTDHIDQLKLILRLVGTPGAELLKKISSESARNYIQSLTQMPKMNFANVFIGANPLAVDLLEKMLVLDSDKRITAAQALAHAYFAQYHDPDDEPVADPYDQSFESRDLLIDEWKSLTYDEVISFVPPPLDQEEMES

The first experiment concerns the target T1, active p38 alpha enzyme (Upstate Biotechnology) (Homo sapiens, UniProt Q16539).
T1 construct: purchased Upstate Biotechnology
Kind of experiment: p38α biochemical assay (ATP turnover, luminescent detection, Cambrex PKlight). As to conditions: p38α biochemical assay, Table 1 Biological Activity. The procedure: The p38α biochemical assay employed is based on measurement of total ATP turnover following enzyme incubation with substrate in the presence of ATP with the use of a luminescent detection reagent (Cambrex PKlight). The assays were performed in 1536-well white opaque plates.
The final volume was 7.5005 μL as prepared prepared from the addition of 5 ul of kinase reaction (p38 alpah+MapkapK2+ATP) with 0.0005 μL compound dissolved in DMSO, and 2.5 ul of the detection reagent. Assay buffer contains the following reagents to give final concentration in the assay: 200 mM Tris, 100 mM MgCl2, 1.5 mM EGTA, 4 mM CaCl2, 20 mM MOPS, 1 mM EDTA, 1% glycerol, 0.1% B-Mecaptoethanol, and 1 mg/ml BSA. Test compounds are pinned using proprietary pintool technology (Kalypsys, Inc) and delivered as […] amounts into the 5 ul mixture of active p38 alpha enzyme (Upstate Biotechnology) and MapkapK2 (Upstate Biotechnology) whole protein as a substrate for phosphorylation in the presence of 1.4 uM final concentration ATP. Reactions are incubated at 30C for 2 hours and detection reagent is added in 2.5 ul/well amounts. Assay is read using a Perkin Elmer Viewlux.
For `CC(=O)c1cccc(C(=O)NCc2nc(-c3ccc(F)cc3)c(-c3nc(C(=O)NC(C)C)cs3)o2)c1` [Example 169], the pIC50 was < 6.00. Same read-out and setting: then `CC(C)NC(=O)c1csc(-c2oc(CNC(=O)C(NC(=O)OC(C)(C)C)C(C)C)nc2-c2ccc(F)cc2)n1` (stereo not shown) [Example 298], with < 6.00; and `CC(C)NC(=O)c1csc(-c2oc(CN3CCN(C(=O)C(F)(F)F)CC3)nc2-c2ccc(F)cc2)n1` [Example 345], with ≥ 6.00; and `CC(C)NC(=O)c1csc(-c2c(-c3ccc(F)cc3)noc2CNC(=O)c2ccc3ccccc3c2O)n1` [Example 720], with < 6.00. With `Cc1ccc(C(=O)NCc2nc(-c3ccc(F)cc3)c(-c3nc(C(=O)NC(C)C)cs3)o2)cc1F` [Example 149], the pIC50 is < 6.00. The same measure, in the same setting: the result for `CC(C)NC(=O)c1csc(-c2oc(CN3CCN(C(=O)CCc4cccc(Br)c4)CC3)nc2-c2ccc(F)cc2)n1` [Example 547] reads < 6.00; that for `COc1cc(Cl)ccc1C(=O)N1CCN(Cc2nc(-c3ccc(F)cc3)c(-c3nc(C(=O)NC(C)C)cs3)o2)CC1` [Example 476], < 6.00; that for `CC(C)NC(=O)c1csc(-c2c(-c3ccc(F)cc3)noc2CNC(=O)c2ccc(O)cc2O)n1` [Example 623], < 6.00. Same read-out and setting: the result for `Cc1onc(-c2ccc(Cl)cc2)c1-c1ccn(C(=O)NCC2CCCO2)n1` (stereo not shown) [Example 12, 3-|3-(4-Chloro-phenyl)-5-methyl-isoxazol-4-yl|-pyrazole-1-carboxylic acid (tetrahydro-furan-2-ylmethyl)-amide] reads < 6.00; that for `CC(C)NC(=O)c1csc(-c2oc(CNC(=O)c3cc(Cl)ccc3O)nc2-c2ccc(F)cc2)n1` [Example 196], < 6.00; that for `CC(C)NC(=O)c1csc(-c2oc(CN3CCN(C(=O)C(C)O)CC3)nc2-c2ccc(F)cc2)n1` (stereo not shown) [Example 338], < 6.00.

On to `CC(C)NC(=O)c1csc(-c2oc(CN3CCN(C(=O)c4cc(F)c(F)cc4[N+](=O)[O-])CC3)nc2-c2ccc(F)cc2)n1` [Example 515], for which the pIC50 is ≥ 6.00. On to `COc1ccc(C(=O)N2CCN(Cc3nc(-c4ccc(F)cc4)c(-c4nc(C(=O)NC(C)C)cs4)o3)CC2)cc1` [Example 378], for which the pIC50 was < 6.00.

Turning to `CC(C)NC(=O)c1csc(-c2c(-c3ccc(F)cc3)noc2CNC(=O)c2cc(F)ccc2[N+](=O)[O-])n1` [Example 711], the pIC50 is < 6.00. The same measure, in the same setting: then `Cc1ccc(C(=O)N2CCN(Cc3nc(-c4ccc(F)cc4)c(-c4nc(C(=O)NC(C)C)cs4)o3)CC2)cc1F` [Example 386], with < 6.00; and `Cc1nc(-c2ccc(F)cc2)c(-c2nc(C(=O)NCCCN3CCOCC3)cs2)s1` [Example 58, 4′-(4-Fluoro-phenyl)-2′-methyl-|2,5′|bithiazolyl-4-carboxylic acid (3-morpholin-4-yl-propyl)-amide], with < 6.00. Regarding `CC(C)NC(=O)c1csc(-c2c(-c3ccc(F)cc3)noc2CNC(=O)C(F)(F)F)n1` [Example 583], the negative logarithm of the IC50 (pIC50) is ≥ 6.00. With `CC(C)NC(=O)c1csc(-c2c(-c3ccc(F)cc3)noc2CNC(=O)c2cn(C)cn2)n1` [Example 592], the pIC50 is < 6.00. `CC(C)NC(=O)c1csc(-c2oc(CN3CCN(C(=O)C(C)c4ccc(O)cc4)CC3)nc2-c2ccc(F)cc2)n1` (stereo not shown) [Example 420]: the pIC50 is < 6.00. For `CC(C)NC(=O)c1csc(-c2oc(CN3CCN(C(=O)/C=C/c4ccccc4Cl)CC3)nc2-c2ccc(F)cc2)n1` [Example 468], the pIC50 is < 6.00. For `C#CCNC(=O)c1csc(-c2c(-c3ccc(F)cc3)ncn2C2CCN(Cc3ccccc3)CC2)n1` [Example 89, 2-|3-(1-Benzyl-piperidin-4-yl)-5-(4-fluoro-phenyl)-3H-imidazol-4-yl|-thiazole-4-carboxylic acid prop-2-ynylamide], the pIC50 was < 6.00.

With `CC(C)NC(=O)c1csc(-c2c(-c3ccc(F)cc3)noc2C2CCN(C(=O)CO)CC2)n1` [Example 36, 2-{3-(4-Fluoro-phenyl)-5-|1-(2-hydroxy-acetyl)-piperidin-4-yl|-isoxazol-4-yl}-thiazole-4-carboxylic acid isopropylamide], the pIC50 was ≥ 6.00. The same measure, in the same setting: then `Cc1c(C(=O)N2CCN(Cc3nc(-c4ccc(F)cc4)c(-c4nc(C(=O)NC(C)C)cs4)o3)CC2)cccc1[N+](=O)[O-]` [Example 460], with < 6.00. Turning to `COc1cc(OC)c(C(=O)NCc2onc(-c3ccc(F)cc3)c2-c2nc(C(=O)NC(C)C)cs2)c(OC)c1` [Example 758], the pIC50 was < 6.00.

On to `CCOc1ccc2ccccc2c1C(=O)N1CCN(Cc2nc(-c3ccc(F)cc3)c(-c3nc(C(=O)NC(C)C)cs3)o2)CC1` [Example 534], for which the pIC50 is ≥ 6.00. The same measure, in the same setting: the result for `CC(C)NC(=O)c1csc(-c2oc(CN3CCN(C(=O)c4cc5ccccc5s4)CC3)nc2-c2ccc(F)cc2)n1` [Example 444] reads < 6.00. Still for that read-out and setting: the result for `CC(C)NC(=O)c1csc(-c2oc(CN3CCN(C(=O)c4cc(Cl)ccn4)CC3)nc2-c2ccc(F)cc2)n1` [Example 392] reads < 6.00.

The same experiment, now with this note: p38α kinase; Table 1 Biological Activity.
Turning to `CC(C)NC(=O)c1csc(-c2c(-c3ccc(F)cc3)noc2CN2CCN(C3CCCCC3)CC2)n1` [Example 1573], the pIC50 is < 6.00. Same read-out and setting: the result for `Cc1nc(-c2ccc(F)cc2)c(-c2nc(C(=O)NCC3CC3)cs2)s1` [Example 1715] reads ≥ 6.00. On to `CCCNC(=O)c1csc(-c2sc(C)nc2-c2ccc(F)cc2)n1` [Example 1710], for which the pIC50 is < 6.00. In the case of `CC(C)(C)CCNC(=O)c1csc(-c2c(-c3ccc(F)cc3)n[nH]c2C2CCNCC2)n1` [Example 2057], the pIC50 is < 6.00.

For the molecule `CC(C)NC(=O)c1csc(-c2c(-c3ccc(F)cc3)noc2CNCc2ccc(F)c(F)c2)n1` [Example 1466], the pIC50 is < 6.00.

For the molecule `Cc1cccc(NCc2onc(-c3ccc(F)cc3)c2-c2nc(C(=O)NC(C)C)cs2)c1C` [Example 1644], the pIC50 was < 6.00.

Take `Cc1ccc([C@H](C)NCc2nc(-c3ccc(F)cc3)c(-c3nc(C(=O)NC(C)C)cs3)o2)cc1` [Example 1115]: the pIC50 was < 6.00. Regarding `Cc1nc(-c2ccc(F)cc2)c(-c2nc(C(=O)NCc3ccc(Cl)c(Cl)c3)cs2)s1` [Example 1820], the pIC50 was ≥ 6.00. For the molecule `CN(C)CCNC(=O)c1csc(-c2c(-c3ccc(F)cc3)n[nH]c2C2CCNCC2)n1` [Example 2049], the pIC50 was < 6.00.

For `CCN(CC)CCN(Cc1ccccc1)Cc1onc(-c2ccc(F)cc2)c1-c1nc(C(=O)NC(C)C)cs1` [Example 1607], the pIC50 is < 6.00. On to `CC(C)NC(=O)c1csc(-c2c(-c3ccc(F)cc3)noc2CNCCO)n1` [Example 1375], for which the negative logarithm of the IC50 (pIC50) is < 6.00. Still for that read-out and setting: the result for `CC(C)NC(=O)c1csc(-c2c(-c3ccc(F)cc3)noc2CN2CCN(C(=O)OC(C)(C)C)CC2)n1` [Example 1584] reads < 6.00; that for `CC(C)NC(=O)c1csc(-c2c(-c3ccc(F)cc3)n[nH]c2C2CCN(C(=O)C3CN(C(=O)OC(C)(C)C)CCN3)CC2)n1` (stereo not shown) [Example 1029], ≥ 6.00; that for `COc1cc2c(cc1OC)CN(C(=O)c1csc(-c3sc(C)nc3-c3ccc(F)cc3)n1)CC2` [Example 1946], ≥ 6.00. The same measure, in the same setting: the result for `O=C(NC1CCN(Cc2ccccc2)CC1)c1csc(-c2c(-c3ccc(F)cc3)n[nH]c2C2CCNCC2)n1` [Example 2151] reads < 6.00; that for `Cc1nc(-c2ccc(F)cc2)c(-c2nc(C(=O)NCCN3CCCC3)cs2)s1` [Example 1748], ≥ 6.00; that for `CC(C)NC(=O)c1csc(-c2c(-c3ccc(F)cc3)noc2CNCCC(C)(C)C)n1` [Example 1410], < 6.00. On to `CC(C)NC(=O)c1csc(-c2c(-c3ccc(F)cc3)noc2CNC(=O)c2cccc(I)c2)n1` [Example 801], for which the pIC50 is < 6.00. The same measure, in the same setting: then `Cc1nc(-c2ccc(F)cc2)c(-c2nc(C(=O)NC(C)C)cs2)[nH]1` [Example 2158, 2-|5-(4-Fluoro-phenyl)-2-methyl-3H-imidazol-4-yl|-thiazole-4-carboxylic acid isopropylamide], with ≥ 6.00; and `CC(C)NC(=O)c1csc(-c2c(-c3ccc(F)cc3)n[nH]c2C2CCN(C(=O)c3ccc(OC(C)C)cc3)CC2)n1` [Example 933], with < 6.00. The same measure, in the same setting: then `CC(C)NC(=O)c1csc(-c2c(-c3ccc(F)cc3)n[nH]c2C2CCN(C(=O)C3CCc4ccccc43)CC2)n1` (stereo not shown) [Example 878], with < 6.00; and `CC(C)NC(=O)c1csc(-c2c(-c3ccc(F)cc3)n[nH]c2C2CCN(C(=O)C(Cc3ccc(O)cc3)NC(=O)OC(C)(C)C)CC2)n1` (stereo not shown) [Example 1048], with < 6.00. Same read-out and setting: the result for `CC(C)NC(=O)c1csc(-c2c(-c3ccc(F)cc3)n[nH]c2C2CCN(C(=O)c3ccc(OCc4ccccc4)cc3)CC2)n1` [Example 1022] reads < 6.00; that for `CCCC(C)NC(=O)c1csc(-c2c(-c3ccc(F)cc3)n[nH]c2C2CCNCC2)n1` (stereo not shown) [Example 2045], ≥ 6.00. Consider `CCc1ccccc1NCc1onc(-c2ccc(F)cc2)c1-c1nc(C(=O)NC(C)C)cs1` [Example 1642], for which the pIC50 was < 6.00. On to `CC(C)NC(=O)c1csc(-c2oc(CN3CCCN(Cc4ccccc4)CC3)nc2-c2ccc(F)cc2)n1` [Example 1250], for which the pIC50 was < 6.00.

In the case of `CC(C)NC(=O)c1csc(-c2c(-c3ccc(F)cc3)n[nH]c2C2CCN(C(=O)c3ccccc3Oc3ccccc3)CC2)n1` [Example 1003], the pIC50 was < 6.00. As for `CC(C)NC(=O)c1csc(-c2oc(CNCCCCO)nc2-c2ccc(F)cc2)n1` [Example 1075], the negative logarithm of the IC50 (pIC50) is < 6.00.
